# Assay results from patent publication US5851994A, “Compositions that inhibit wound contraction and methods of using same” (La Jolla Cancer Research Foundation, priority 1995, dated 1998).
# Tests used:
# collagen gels = details: Grinnell et al. 1989; U.S. Pat. No. 4,957,902; cited from earlier work
# CTT-18 cells = assay: Peptide collagen gel contraction assay; type: cell-based, human; details: FIG. 4, gel area over time
# Experimental: CTT-18 cells, which are a normal human colon fibroblast cell line available from ATCC (#1459-CRL), were used in the gel contraction assays. Subconfluent CTT-18 cells were harvested by trypsinization, neutralized with soybean trypsin inhibitor, then washed several times with serum-free Dulbecco's modified Eagle's medium (DMEM). The cells were resuspended at 5×10^6 cells/ml in DMEM.
# The collagen solution was prepared by combining the following reagents in the stated order: 1× DMEM, 1× insulin/transferrin/selenium (ITS; Collaborative Research; Bedford Mass.), 25 mM HEPES, 2.5 mg/ml rat tail collagen I (Collaborative Research). The solution was adjusted to pH 7.4 using 2M NaOH and deionized water was added to the appropriate final volume. Finally, 5×10^4 cells/ml (DMEM) were added to the solution and 0.6 ml of the combined solution was added to each well of a 24 well plate. The solution was allowed to gel for 1 hr at 37° C.
# Peptides were diluted to 4.5 mM in 1× DMEM/1× ITS/1× penicillin/1× streptomycin and the solution was adjusted to pH 7.4. Each gel was overlayed with 0.6 ml peptide solution and the gel periphery was rimmed to release the gel from the edge of the well. The gels were incubated at 37° C. and each gel area was monitored daily by planimetry using a computerized planimetry program (Digitize, Macintosh).
# In addition to determining the area of a gel, a replicate gel for each experimental condition was examined each day for cell viability. To determine cell viability, the overlay media was removed and replaced with 4 mg/ml collagenase type 2 (Worthington Biochemical; Freehold N.J.) in collagen digestion buffer (0.13M NaCl, 0.01M Ca acetate, 0.02M HEPES, pH 7.2). The sample was incubated at 37° C. until digestion was complete (about 1 hr). The solution was centrifuged at 3000 rpm in a microcentrifuge for 5 min and the pellet resuspended in trypsin/EDTA and incubated for 20 min at 37° C. The solution again was centrifuged, the pellet resuspended in 40 μl 0.4% trypan blue and the viable cells were counted in a hemocytometer. In general, the variations in cell viability were slight, and it was unnecessary to correct the gel contraction results due to significant differences in cell viability.
# [1] = system: NIH 3T3 mouse fibroblasts; assay: Decorin collagen gel contraction assay, NIH 3T3 cells; type: cell-based; details: for collagen gel contraction versus control level: 10 ng/ml PDGF, 20 ng/ml acidic FGF, without decorin
# Experimental: NIH 3T3 mouse fibroblasts (ATCC #CRL 1658) and WI38 human fibroblasts (ATCC #CL75) were used in these assays and passaged in culture as prescribed.
# Cells were collected by washing the cells with sterile PBS, then incubating the cells for 5 min at 37° C. with trypsin-EDTA (200 mg versene and 500 mg trypsin/liter Hank's balanced salt solution; Gibco/BRL; Gaithersburg MD). Following incubation, cells were removed by aspiration with a pipet and DMEM supplemented with 10% FBS (BioWhittaker; Walkersville Md.) was added to neutralize the trypsin. Cells were centrifuged for 8 min at 1200 rpm, decanted, washed 3× with serum-free DMEM and resuspended in serum-free DMEM to the following concentrations: NIH 3T3 cells, 3.0×10^6 cells/ml; WI38 cells, 1.0×10^6 cell/ml.
# The following reagents were added on ice to generate a total of 24 gels: 3.6 ml 5× DMEM (Gibco/BRL), 1.0 ml 1M HEPES (Sigma), 0.74 ml 0.5M NaOH, 2.0 ml cell suspension in serum-free DMEM, 7.6 ml rat tail collagen I (3.81 mg/ml; Collaborative Research). The collagen mixture was quickly added to a mixture of 4.8 ml decorin and water to yield the appropriate decorin concentration and 0.7 ml was added to each well of a 24 well microtiter dish that previously had been coated with 2% bovine serum albumin in PBS. The gels were allowed to solidify for 1 hr at 37° C. in a humidified incubator, then were released from the edges of the well by tapping or by rimming with a pipet tip.
# Gels were transferred aseptically using forceps from the microtiter plate into a Nunc six well plate. Three gels were transferred into each 33 mm well. Prior to transfer, each well received 1 ng/ml TGFβ (from porcine platelets; R&D Systems; Minneapolis Minn.). […] The plates were rocked in a humidified incubator at 37° C. and 7% CO2 for the length of the experiment. The area of the gels was measured daily using photographs from an image analyzer and planimetry.
# collagen [2] = assay: Effect on collagen fibril structure
# collagen [3] = assay: Binding to collagen
molecule,measurement,setting,value
GRGESP,effect on contraction of collagen gels,collagen gels,inhibited contraction of collagen gels
"N=C(N)NCCC[C@H](N)C(=O)O [mono-arginine, arginine]",inhibition of gel contraction,CTT-18 cells,did not inhibit gel contraction
same,inhibition of gel contraction,CTT-18 cells; listed as Arg 1,do not inhibit collagen gel contraction
TGFβ: growth factor from porcine platelets (R&D Systems) that stimulates contraction,collagen gel contraction versus control level,"[1]; 1 ng/ml TGFβ, FIG. 6",increased the amount of collagen gel contraction above the control level
same,contraction of a collagen/NIH 3T3 gel,"[1]; 1.0 ng/ml TGFβ, 24 hr, 0 μg/ml decorin",approximately 60%
PDGF,collagen gel contraction versus control level,"[1]; 1 ng/ml TGFβ, FIG. 6",increased the amount of collagen gel contraction above the control level
tri-arginine,inhibition of gel contraction,CTT-18 cells,did not inhibit gel contraction
same,inhibition of gel contraction,CTT-18 cells; listed as Arg 3,do not inhibit collagen gel contraction
di-arginine,inhibition of gel contraction,CTT-18 cells,did not inhibit gel contraction
same,inhibition of gel contraction,CTT-18 cells; listed as Arg 2,do not inhibit collagen gel contraction
acidic FGF: acidic fibroblast-derived growth factor (R & D Systems),collagen gel contraction versus control level,"[1]; 1 ng/ml TGFβ, FIG. 6",increased the amount of collagen gel contraction above the control level
"decorin: proteoglycan produced by fibroblasts, core protein about 40 kDa; produced in decorin-expressing CHO cells (protein, UniProt P07585 31-359, looked up) Decorin: DEASGIGPEVPDDRDFEPSLGPVCPFRCQCHLRVVQCSDLGLDKVPKDLPPDTTLLDLQNNKITEIKDGDFKNLKNLHALILVNNKISKVSPGAFTPLVKLERLYLSKNQLKELPEKMPKTLQELRAHENEITKVRKVTFNGLNQMIVIELGTNPLKSSGIENGAFQGMKKLSYIRIADTNITSIPQGLPPSLTELHLDGNKISRVDAASLKGLNNLAKLGLSFNSISAVDNGSLANTPHLRELHLDNNKLTRVPGGLAEHKYIQVVYLHNNNISVVGSSDFCPPGHNTKKASYSGVSLFSNPVQYWEIQPSTFRCVYVRSAIQLGNYK",gel contraction in the presence of growth factors,"[1]; 200 μg decorin per ml gel, 1 ng/ml TGFβ, 10 ng/ml PDGF or 20 ng/ml acidic FGF, FIG. 6",reduced or inhibited the level of gel contraction
same,gel contraction at 200 μg per ml decorin,"[1]; collagen/NIH 3T3 gel, 1 ng/ml TGFβ, 24 hr",no gel contraction was observed
same,gel contraction with increasing concentrations of decorin in the gel,"[1]; collagen/NIH 3T3 gel, 1 ng/ml TGFβ, 24 hr, FIG. 5",reduced or inhibited gel contraction
"Decorin that had been reduced and alkylated: decorin incubated with dithiothreitol, then iodoacetamide (protein, UniProt P07585 31-359, looked up, reduced and alkylated, decorin incubated with dithiothreitol, then iodoacetamide) Decorin: DEASGIGPEVPDDRDFEPSLGPVCPFRCQCHLRVVQCSDLGLDKVPKDLPPDTTLLDLQNNKITEIKDGDFKNLKNLHALILVNNKISKVSPGAFTPLVKLERLYLSKNQLKELPEKMPKTLQELRAHENEITKVRKVTFNGLNQMIVIELGTNPLKSSGIENGAFQGMKKLSYIRIADTNITSIPQGLPPSLTELHLDGNKISRVDAASLKGLNNLAKLGLSFNSISAVDNGSLANTPHLRELHLDNNKLTRVPGGLAEHKYIQVVYLHNNNISVVGSSDFCPPGHNTKKASYSGVSLFSNPVQYWEIQPSTFRCVYVRSAIQLGNYK",gel contraction,"[1]; reduced and alkylated form, data not shown",inhibited gel contraction
"denatured decorin: denatured decorin, compared with native/intact decorin (protein, UniProt P07585 31-359, looked up, denatured) Decorin: DEASGIGPEVPDDRDFEPSLGPVCPFRCQCHLRVVQCSDLGLDKVPKDLPPDTTLLDLQNNKITEIKDGDFKNLKNLHALILVNNKISKVSPGAFTPLVKLERLYLSKNQLKELPEKMPKTLQELRAHENEITKVRKVTFNGLNQMIVIELGTNPLKSSGIENGAFQGMKKLSYIRIADTNITSIPQGLPPSLTELHLDGNKISRVDAASLKGLNNLAKLGLSFNSISAVDNGSLANTPHLRELHLDNNKLTRVPGGLAEHKYIQVVYLHNNNISVVGSSDFCPPGHNTKKASYSGVSLFSNPVQYWEIQPSTFRCVYVRSAIQLGNYK",effect on fibril structure,collagen [2],does not affect fibril structure
same,collagen binding,collagen [3],binds collagen to the same extent as nondenatured decorin
same,inhibition of gel contraction compared with intact decorin,[1]; cells not given,retains some ability to inhibit gel contraction
"biglycan: proteoglycan with core protein sequence closely related to decorin (protein, UniProt P21810 38-368, looked up) Biglycan: DEEASGADTSGVLDPDSVTPTYSAMCPFGCHCHLRVVQCSDLGLKSVPKEISPDTTLLDLQNNDISELRKDDFKGLQHLYALVLVNNKISKIHEKAFSPLRKLQKLYISKNHLVEIPPNLPSSLVELRIHDNRIRKVPKGVFSGLRNMNCIEMGGNPLENSGFEPGAFDGLKLNYLRISEAKLTGIPKDLPETLNELHLDHNKIQAIELEDLLRYSKLYRLGLGHNQIRMIENGSLSFLPTLRELHLDNNKLARVPSGLPDLKLLQVVYLHSNNITKVGVNDFCPMGFGVKRAYYNGISLFNNPVPYWEVQPATFRCVTDRLAIQFGNYKK",collagen binding,collagen [3],can bind to collagen in the gel contraction assays
